Results as given in US20240254135A1, “POLYPHENOL COMPOUNDS” (Epirium Bio Inc., priority 2022, published 2024).

Target: T1, mitochondrial ATP synthase (Mus musculus, UniProt P56480+Q03265)
T1 construct: from tissue; host or cells: mouse heart, isolated mitochondria (fresh or frozen)
Experiment: ATP hydrolysis (proton release/ECAR, Seahorse XF96) in fresh heart mitochondria
Type: biochemical
Conditions: for changes in ATP hydrolysis: fresh heart mitochondria (FIG. 1, FIG. 2)
From the text: To assess whether the fraction of synthetic and reverse hydrolytic activities of mitochondrial ATP synthase can be measured in the same preparation, a protocol was developed to monitor changes in oxygen consumption and proton release in response to changes in mitochondrial ATP synthase activity. The proton released and the concomitant changes in the pH can be monitored using the ECAR (extracellular acidification) channel in the Agilent Seahorse XF analyzer using isolated mitochondria, to ensure that the changes in pH cannot be attributed to glycolysis or other contributors to ECAR.
Mice were anesthetized with isoflurane followed by a cervical dislocation, and the heart was immediately removed and placed in ice cold relaxation buffer (5 mM sodium pyrophosphate, 100 mM KCl, 5 mM EGTA, 5 mM HEPES; pH 7.4). The heart was squeezed with tweezers to remove blood, minced with scissors, and then placed in a glass-glass Dounce homogenizer with 3 mL of HES homogenization buffer (250 mM sucrose, 5 mM HEPES, 1 mM EDTA; pH to 7.2, adjusted with KOH). The heart tissue was homogenized first with the loose pestle and followed by the tight pestle. The homogenized tissue was placed in a pre-chilled 15 ml conical tube and centrifuged at 900×g (4° C.) for 10 minutes (min). The supernatant was removed, placed in a new tube and centrifuged again at 900×g for 10 min. The supernatant was then transferred to 2 mL microcentrifuge tubes and centrifuged at 10,000×g (4° C.) for 10 min. The mitochondrial pellets were re-suspended in ice cold HES buffer and mitochondrial protein was measured with a BCA assay (Pierce). The concentrated mitochondrial pellet was stored on ice.
Heart mitochondria (0.75-1.5 μg) were loaded into a Seahorse XF96 microplate in 20 μL of MAS (70 mM Sucrose, 220 mM Mannitol, 5 mM KH2PO4, 5 mM MgCl2, 1 mM EGTA, 2 mM HEPES; pH 7.2) plus 1% free fatty acid BSA containing substrates. The loaded plate was centrifuged at 2,000×g for 5 min at 4° C. (no brake) and an additional 130 μL of MAS was added to each well. When assessing compounds effect on respirometry, the compounds were added at this point at the indicated concentration in MAS buffer. To avoid disrupting mitochondrial adherence to the bottom of the plate, MAS was added using a multichannel pipette pointed at a 45° angle to the top of the well-chamber, as instructed by the manufacturer. Substrate concentrations in the well when assay was starting in state 4 were as follow: (i) 5 mM pyruvate+5 mM malate or ii) 5 mM succinate+2 μM rotenone. Substrate concentrations in the well when assay was starting in state 3 were as follow: (i) 5 mM pyruvate+5 mM malate+4 mM ADP or ii) 5 mM succinate+2 μM rotenone+4 mM ADP. Injections were performed as indicated in the figure descriptions at the following final concentration in the well: oligomycin (3.5 μM), FCCP (4 μM), Antimycin A (2 μM). Compounds were added at the indicated concentration.
ATP hydrolysis capacity or state 4 acidification was measured using Seahorse XF96 as described in Divakaruni et al. (2018) Anal Biochem 552:60-65 and Acin-Perez et al. (2021) Life 11(9):949, in MAS (70 mM Sucrose, 220 mM Mannitol, 5 mM KH2PO4, 5 mM MgCl2, 1 mM EGTA, 2 mM HEPES; pH 7.2). Plates were loaded with 0.75-1.5 μg of mouse heart mitochondria, or 25 μg of cell lysate. Cell lysates were prepared by subjecting the samples to 4 cycles of free thaw (liquid nitrogen—37° C. water bath) before measuring protein concentration. When assessing compounds effect on respirometry, the compounds were added in MAS after sample centrifugation. Initial respiration of the samples was sustained by the addition of 5 mM succinate+2 μM rotenone in the MAS after centrifugation. Injections were performed at the following final concentration in the well: Antimycin A (2 μM), oligomycin (5 μM), FCCP (1 μM), ATP (20 mM). To assess maximal ATP concentration, ATP was injected consecutively. […]

| Structure (SMILES) | changes in ATP hydrolysis | change in hydrolysis (fresh mitochondria, Complex I) | decrease in hydrolysis (fresh mitochondria, Complex II) [%] | decrease in hydrolysis (mitochondria preparation and substrate not given) |
| --- | --- | --- | --- | --- |
| COc1cc(C2Oc3ccccc3CC2O)ccc1F (single isomer, unassigned) [Compound 75b, 2-(4-fluoro-3-methoxyphenyl)chroman-3-ol] | very mild changes | – | – | – |
| Oc1ccc2c(c1)OC(c1ccc(O)c(C(F)(F)F)c1)C(O)C2 (single isomer, unassigned) [Compound 77b, 2-(4-hydroxy-3-(trifluoromethyl)phenyl)chromane-3,7-diol] | very mild changes | no clear change | 20 | – |
| Oc1cc(O)c2c(c1)O[C@H](c1ccc(O)c(O)c1)[C@H](O)C2 [Epicatechin, (+)Epicatechin, reference compound] | – | – | – | 10-25% |
